Measurements: patent publication US7737166B2, “Antifungal bicyclic hetero ring compounds” (Daiichi Sankyo Company, Limited, priority 2005, dated 2010)
In brackets after ≈: the same amount, converted by molar mass.

What was measured:
C. albicans ATCC90028 = assay: Antifungal activity (GI80), growth inhibition in YPD20 medium by absorbance at 600 nm; assay type: cell-based; details: 37° C., absorbance 600 nm; for IC80: Candida albicans, ATCC90028, minimum concentration for at least 80% cell growth inhibition, read-out: GI80 (μg/ml) C. albicans ATCC90028; for GI80 (μg/ml) C. albicans ATCC90028: minimum concentration for at least 80% cell growth inhibition
Experimental: (§1) The antifungal activity of the compounds of the invention was determined according to the method mentioned below.
(§2) An YPD20 medium (1% yeast extract, 2% peptone, 20% glucose) was used,
(§3) (2) Preparation of Cell Liquid for Inoculation:
(§4) Cells incubated overnight with Sabouraud dextrose agar at 30° C. were suspended in 0.1% Tween 80-added saline, and then added to a concentrated medium (1.33% yeast extract, 2.67% peptone, 13.33% glucose) so that the final cell concentration could be 5×10^3 cells/ml, thereby preparing a cell liquid for inoculation.
(§5) (3) Production of Chemical Dilution Plate:
(§6) A metered sample was dissolved in dimethyl sulfoxide, and a 2-fold dilution series was prepared using dimethyl sulfoxide. A chemical dilution of 2 μl each was added to a flat-bottom 96-well plate with 40% glucose (48 μl) put in each well, thereby producing a chemical dilution plate.
(§7) (4) Inoculation and Cultivation of Cell Liquid:
(§8) The cell liquid (150 μl) prepared in (2) was added to the chemical dilution plate produced in (3), followed by aerobic static cultivation at 37° C.
(§9) (5) Determination of Antifungal Activity (GI80 Value):
(§10) After cultivation for […], the plate was stirred, and its absorbance (600 nm) was measured. Based on the absorbance as the index, the minimum chemical concentration for at least 80% cell growth inhibition relative to the cell growth in the chemical-free well was computed as a GI80 value.

C. glabrata ATCC48435 = assay: as above; assay type: cell-based; details: 37° C., absorbance 600 nm; for IC80: Nakaseomyces glabratus, ATCC48435, minimum concentration for at least 80% cell growth inhibition, read-out: GI80 (μg/ml) C. glabrata ATCC48435; for GI80 (μg/ml) C. glabrata ATCC48435: minimum concentration for at least 80% cell growth inhibition
Experimental: as §1, §2, §3, §4, §5, §6, §7, §8, §9, §10

C. albicans ATCC MYA-573 = assay: as above; assay type: cell-based; details: minimum concentration for at least 80% cell growth inhibition, 37° C., absorbance 600 nm; for IC80: Candida albicans, read-out: GI80 (μg/ml) C. albicans ATCC MYA-573
Experimental: as §1, §2, §3, §4, §5, §6, §7, §8, §9, §10

| SMILES | melting point | IC80 (C. albicans ATCC90028) [µg/mL] | IC80 (C. glabrata ATCC48435) [µg/mL] | IC80 (C. albicans ATCC MYA-573) [µg/mL] | further results |
| --- | --- | --- | --- | --- | --- |
| Cc1c(-c2ccccc2)c(N2CC[C@](C)(N)C2)c2oc(C(=O)N(C)C)nc2c1C#N [Example 160, 7-[(3S)-3-Amino-3-methylpyrrolidin-1-yl]-4-cyano-N,N,5-trimethyl-6-phenyl-1,3-benzoxazole-2-carboxamide] | 202 to 204 °C |  |  |  |  |
| Cc1c(-c2ccccn2)c(N2CC[C@H](N(C)C)C2)c2oc(C3CC3)nc2c1C#N [Example 20, 2-Cyclopropyl-7-[(3S)-3-(dimethylamino)pyrrolidin-1-yl]-5-methyl-6-(pyridin-2-yl)-1,3-benzoxazole-4-carbonitrile] | 150 to 151 °C |  |  |  |  |
| Cc1c(-c2ccccc2)c(N2CC[C@H](N(C)C)C2)c2oc(C(=O)N(C)CCc3ccccc3)nc2c1C#N [Example 46, 4-Cyano-7-[(3S)-3-(dimethylamino)pyrrolidin-1-yl]-N,5-dimethyl-6-phenyl-N-(2-phenylethyl)-1,3-benzoxazole-2-carboxamide] | 138 to 141 °C |  |  |  |  |
| Cc1c(-c2ccccc2)c(C2=CC(N(C)C)CC2)c2oc(C(C)(C)C)nc2c1C#N (centres unmarked) [Example 3, 2-tert-Butyl-7-[3-(dimethylamino)cyclopent-1-en-1-yl]-5-methyl-6-phenyl-1,3-benzoxazole-4-carbonitrile] | 114 to 116 °C |  |  |  |  |
| Cc1c(-c2ccco2)c(N2CC[C@H](N(C)C)C2)c2oc(C3CC3)nc2c1C#N [Example 18, 2-Cyclopropyl-7-[(3S)-3-(dimethylamino)pyrrolidin-1-yl]-6-(2-furyl)-5-methyl-1,3-benzoxazole-4-carbonitrile] | 158 to 159 °C |  |  |  |  |
| CNC(=O)c1nc2c(C#N)c(C)c(-c3ccccc3)c(N3CC[C@H](N(C)C)C3)c2o1 [Example 39, 4-Cyano-7-[(3S)-3-(dimethylamino)pyrrolidin-1-yl]-N,5-dimethyl-6-phenyl-1,3-benzoxazole-2-carboxamide] | 214 to 216 °C |  |  |  |  |
| Cc1c(-c2ccccc2)c(N2CC[C@H](N(C)C)C2)c2oc(-c3cnn(C)c3)nc2c1C#N [Example 74, 7-[(3S)-3-(Dimethylamino)pyrrolidin-1-yl]-5-methyl-2-(1-methyl-1H-pyrazol-4-yl)-6-phenyl-1,3-benzoxazole-4-carbonitrile] | 214 to 222 °C |  |  |  |  |
| Cc1c(-c2ccccc2)c(N2CC[C@@H](N(C)C)C2)c2oc(C(=O)N(C)C)nc2c1C#N [Example 40-2, 4-Cyano-N,N,5-trimethyl-7-[(3R)-3-(dimethylamino)pyrrolidin-1-yl]-6-phenyl-1,3-benzoxazole-2-carboxamide] | 67 to 70 °C |  |  |  |  |
| CC(=O)c1c(C)c(C#N)c2nc(C3CC3)oc2c1N1CC[C@H](N(C)C)C1 [Example 26, 6-Acetyl-2-cyclopropyl-7-[(3S)-3-(dimethylamino)pyrrolidin-1-yl]-5-methyl-1,3-benzoxazole-4-carbonitrile] | 142 °C |  |  |  |  |
| Cc1c(Br)c(N2CC[C@H](N(C)C)C2)c2oc(C3CC3)nc2c1C#N | 82 to 86 °C |  |  |  |  |
| Cc1c(-c2ccccc2)c(N2CC[C@H](N(C)C)C2)c2oc(N3CC(O)C3)nc2c1C#N [Example 65, 7-[(3S)-3-(Dimethylamino)pyrrolidin-1-yl]-2-(3-hydroxyazetidin-1-yl)-5-methyl-6-phenyl-1,3-benzoxazole-4-carbonitrile] | 219 to 221 °C |  |  |  |  |
| Cc1c(-c2ccccc2)c(N2CC[C@H](N(C)C)C2)c2oc(C(C)C)nc2c1C#N.Cl | 168 to 170 °C (dec.) |  |  |  |  |
| Cc1c(-c2ccccc2)c(C2=CC(N(C)C)CC2)c2oc(C3CC3)nc2c1C#N (centres unmarked) [Example 8, 2-Cyclopropyl-7-(3-dimethylaminocyclopent-1-en-1-yl)-5-methyl-6-phenyl-1,3-benzoxazole-4-carbonitrile] | 144 to 146 °C |  |  |  |  |
| Cc1c(-c2ccccc2)c(N2CC[C@H](N(C)C)C2)c2oc(N3CCOCC3)nc2c1C#N [Example 130, 7-[(3S)-3-(Dimethylamino)pyrrolidin-1-yl]-5-methyl-2-morpholin-4-yl-6-phenyl-1,3-benzoxazole-4-carbonitrile] | 215 to 217 °C |  |  |  |  |
| Cc1c(-c2ccccc2)c(N2CC[C@H](N(C)C)C2)c2oc(C(C)(C)COCc3ccccc3)nc2c1C#N [Example 13, 2-[2-(Benzyloxy)-1,1-dimethylethyl]-7-[(3S)-3-(dimethylamino)pyrrolidin-1-yl]-5-methyl-6-phenyl-1,3-benzoxazole-4-carbonitrile] |  | 0.063 (≈ 0.124 µM) | 0.032 (≈ 0.0629 µM) | 0.125 (≈ 0.246 µM) |  |
| Cc1c(-c2ccccc2)c(N2CCC[C@H]2CN(C)C)c2oc(C3CC3)nc2c1C#N [Example 154, 2-Cyclopropyl-7-{(2S)-2-[(dimethylamino)methyl]pyrrolidin-1-yl}-5-methyl-6-phenyl-1,3-benzoxazole-4-carbonitrile] |  | 1 (≈ 2.5 µM) | 0.25 (≈ 0.624 µM) | 1 (≈ 2.5 µM) |  |
| CN[C@H]1CCN(c2c(-c3ccccc3)c(C)c(C#N)c3nc(C(=O)N(C)CCF)oc23)C1 [Example 134, 4-Cyano-N-(2-fluoroethyl)-N,5-dimethyl-7-[(3S)-3-(methylamino)pyrrolidin-1-yl]-6-phenyl-1,3-benzoxazole-2-carboxamide] |  | 0.5 (≈ 1.15 µM) | 0.125 (≈ 0.287 µM) | 0.5 (≈ 1.15 µM) |  |
| CN[C@H]1CCN(c2c(-c3csc(C)n3)c(C)c(C#N)c3nc(C(=O)N(C)C)oc23)C1 [Example 158, 4-Cyano-N,N,5-trimethyl-7-[(3S)-3-(methylamino)pyrrolidin-1-yl]-6-(2-methyl-1,3-thiazol-4-yl)-1,3-benzoxazole-2-carboxamide] |  |  |  |  | GI80 (μg/ml) C. albicans ATCC90028 (C. albicans ATCC90028): 0.5 µg/mL (≈ 1.18 µM); GI80 (μg/ml) C. glabrata ATCC48435 (C. glabrata ATCC48435): 0.25 µg/mL (≈ 0.589 µM); GI80 (μg/ml) C. albicans ATCC MYA-573 (C. albicans ATCC MYA-573): 2 µg/mL (≈ 4.71 µM) |
| CNC1=CC(c2c(-c3ccccc3)c(C)c(C#N)c3nc(C(=O)N(C)C)oc23)CC1 (centres unmarked) [Example 156-1, 4-Cyano-N,N,5-trimethyl-7-[3-(methylamino)cyclopent-2-enyl]-6-phenyl-1,3-benzoxazole-2-carboxamide] |  | 0.25 (≈ 0.624 µM) | 0.063 (≈ 0.157 µM) | 0.25 (≈ 0.624 µM) |  |
| Cc1c(-c2ccccc2)c(N2CC[C@H](N(C)C)C2)c2oc(-c3ccco3)nc2c1C#N [Example 34, 7-[(3S)-3-(Dimethylamino)pyrrolidin-1-yl]-2-(2-furyl)-5-methyl-6-phenyl-1,3-benzoxazole-4-carbonitrile] |  | 0.25 (≈ 0.606 µM) | 0.032 (≈ 0.0776 µM) | 0.25 (≈ 0.606 µM) |  |
| Cc1c(-n2cccc2)c(N2CC[C@H](N(C)C)C2)c2oc(C3CC3)nc2c1C#N [Example 151, 2-Cyclopropyl-7-[(3S)-3-(dimethylamino)pyrrolidin-1-yl]-5-methyl-6-(pyrrol-1-yl)-1,3-benzoxazole-4-carbonitrile] |  | 2 (≈ 5.33 µM) | 0.25 (≈ 0.666 µM) | 1 (≈ 2.66 µM) |  |
| CN[C@H]1CCN(c2c(-c3cccc(Cl)c3)c(C)c(C#N)c3nc(C(=O)N(C)C)oc23)C1 [Example 146, 6-(3-Chlorophenyl)-4-cyano-N,N,5-trimethyl-7-[(3S)-3-(methylamino)pyrrolidin-1-yl]-1,3-benzoxazole-2-carboxamide] |  | 0.125 (≈ 0.285 µM) | 0.125 (≈ 0.285 µM) | 0.25 (≈ 0.571 µM) |  |
| CCC(C)n1ncn(-c2ccc(N3CCN(c4ccc(OCC5COC(Cn6cncn6)(c6ccc(Cl)cc6Cl)O5)cc4)CC3)cc2)c1=O (centres unmarked) [ITZ, Itraconazole, reference compound] |  |  |  |  | GI80 (μg/ml) C. albicans ATCC90028 (C. albicans ATCC90028): <0.016 µg/mL; GI80 (μg/ml) C. glabrata ATCC48435 (C. glabrata ATCC48435): 0.25 µg/mL (≈ 0.354 µM); GI80 (μg/ml) C. albicans ATCC MYA-573 (C. albicans ATCC MYA-573): 0.125 µg/mL (≈ 0.177 µM) |
